Measurements reported in the kinase profiling compilation of Christmann-Franck et al. (2016).

Legend:
Assay in all cases: KINOMEscan competition binding
Details in all cases: compound 10.0 µM
ROCK1 (human) = ROCK1 (human) (UniProt Q13464)
TRPM6 (human) = TRPM6 (human) (UniProt Q9BX84)
MAPKAPK5 (human) = MAPKAPK5 (human) (UniProt Q8IW41)
[1] = test system: FLT3 (human), P36888 [ITD]
MAST1 (human) = MAST1 (human) (UniProt Q9Y2H9)
EPHB1 (human) = EPHB1 (human) (UniProt P54762)
DDR2 (human) = DDR2 (human) (UniProt Q16832)
[2] = test system: ABL1 (human), P00519 [M351T]
CDKL5 (human) = CDKL5 (human) (UniProt O76039)
HIPK2 (human) = HIPK2 (human) (UniProt Q9H2X6)
PRPF4B (human) = PRPF4B (human) (UniProt Q13523)
CDK4 CCND1 (human) = CDK4 CCND1 (human) (UniProt P11802+P24385)
MAP2K6 (human) = MAP2K6 (human) (UniProt P52564)
CSNK2A1 (human) = CSNK2A1 (human) (UniProt P68400)
INSRR (human) = INSRR (human) (UniProt P14616)
PLK2 (human) = PLK2 (human) (UniProt Q9NYY3)
SRPK3 (human) = SRPK3 (human) (UniProt Q9UPE1)
ITK (human) = ITK (human) (UniProt Q08881)
PRKAA1 (human) = PRKAA1 (human) (UniProt Q13131)
PRKAA1 (human), sequence (Q13131 whole entry, looked up): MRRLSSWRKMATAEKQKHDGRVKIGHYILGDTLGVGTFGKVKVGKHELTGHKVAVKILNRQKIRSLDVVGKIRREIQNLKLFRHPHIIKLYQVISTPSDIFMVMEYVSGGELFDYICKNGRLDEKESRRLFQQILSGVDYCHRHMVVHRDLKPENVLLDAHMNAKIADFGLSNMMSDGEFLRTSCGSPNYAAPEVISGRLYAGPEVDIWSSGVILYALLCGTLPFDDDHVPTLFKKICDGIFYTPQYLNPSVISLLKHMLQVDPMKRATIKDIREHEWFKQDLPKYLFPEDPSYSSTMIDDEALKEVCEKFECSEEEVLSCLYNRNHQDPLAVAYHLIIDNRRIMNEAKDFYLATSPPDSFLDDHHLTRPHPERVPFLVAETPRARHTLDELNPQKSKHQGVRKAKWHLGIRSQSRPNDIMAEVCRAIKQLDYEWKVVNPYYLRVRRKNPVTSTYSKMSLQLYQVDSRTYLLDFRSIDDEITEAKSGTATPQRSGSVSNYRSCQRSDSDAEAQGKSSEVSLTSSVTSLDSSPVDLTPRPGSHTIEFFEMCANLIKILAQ

AAK1 (human) = AAK1 (human) (UniProt Q2M2I8)
SIK3 (human) = SIK3 (human) (UniProt Q9Y2K2)
TNNI3K (human) = TNNI3K (human) (UniProt Q59H18)
LIMK1 (human) = LIMK1 (human) (UniProt P53667)
MAPK7 (human) = MAPK7 (human) (UniProt Q13164)
CSNK1G1 (human) = CSNK1G1 (human) (UniProt Q9HCP0)
MAP4K4 (human) = MAP4K4 (human) (UniProt O95819)
MAP4K4 (human), sequence (O95819 whole entry, looked up): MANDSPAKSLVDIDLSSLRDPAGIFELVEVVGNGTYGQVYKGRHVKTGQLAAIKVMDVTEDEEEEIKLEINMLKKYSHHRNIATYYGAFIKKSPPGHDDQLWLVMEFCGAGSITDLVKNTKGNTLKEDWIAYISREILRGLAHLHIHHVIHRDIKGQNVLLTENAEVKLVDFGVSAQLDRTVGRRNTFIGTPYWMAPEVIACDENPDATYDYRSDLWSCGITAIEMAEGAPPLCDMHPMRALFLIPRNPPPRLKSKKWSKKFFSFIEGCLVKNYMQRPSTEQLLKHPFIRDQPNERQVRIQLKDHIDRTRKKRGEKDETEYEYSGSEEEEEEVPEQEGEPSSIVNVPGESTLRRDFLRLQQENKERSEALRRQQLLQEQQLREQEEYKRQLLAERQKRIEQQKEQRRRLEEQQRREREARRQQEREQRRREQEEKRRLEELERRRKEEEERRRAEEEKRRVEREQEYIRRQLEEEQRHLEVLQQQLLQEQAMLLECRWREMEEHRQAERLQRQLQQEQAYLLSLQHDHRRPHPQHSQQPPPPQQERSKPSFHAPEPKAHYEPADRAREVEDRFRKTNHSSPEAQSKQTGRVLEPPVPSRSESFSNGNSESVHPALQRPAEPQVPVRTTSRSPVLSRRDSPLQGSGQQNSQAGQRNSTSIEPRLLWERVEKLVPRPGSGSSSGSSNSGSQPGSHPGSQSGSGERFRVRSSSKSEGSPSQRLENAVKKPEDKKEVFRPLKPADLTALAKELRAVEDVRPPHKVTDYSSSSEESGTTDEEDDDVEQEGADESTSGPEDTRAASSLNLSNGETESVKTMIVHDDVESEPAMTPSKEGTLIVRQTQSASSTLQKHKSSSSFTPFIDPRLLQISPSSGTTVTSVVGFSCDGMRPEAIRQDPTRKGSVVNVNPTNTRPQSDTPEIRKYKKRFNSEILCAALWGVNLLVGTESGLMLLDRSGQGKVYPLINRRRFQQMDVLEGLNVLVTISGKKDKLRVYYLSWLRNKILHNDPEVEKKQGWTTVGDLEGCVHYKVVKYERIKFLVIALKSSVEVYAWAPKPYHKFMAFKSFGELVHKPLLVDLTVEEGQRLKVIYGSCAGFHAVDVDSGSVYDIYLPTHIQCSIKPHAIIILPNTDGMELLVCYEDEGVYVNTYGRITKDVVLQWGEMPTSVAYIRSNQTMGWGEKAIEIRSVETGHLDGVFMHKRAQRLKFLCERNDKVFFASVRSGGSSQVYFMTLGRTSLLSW

EPHA2 (human) = EPHA2 (human) (UniProt P29317)
EPHB3 (human) = EPHB3 (human) (UniProt P54753)
EPHB3 (human), sequence (P54753 whole entry, looked up): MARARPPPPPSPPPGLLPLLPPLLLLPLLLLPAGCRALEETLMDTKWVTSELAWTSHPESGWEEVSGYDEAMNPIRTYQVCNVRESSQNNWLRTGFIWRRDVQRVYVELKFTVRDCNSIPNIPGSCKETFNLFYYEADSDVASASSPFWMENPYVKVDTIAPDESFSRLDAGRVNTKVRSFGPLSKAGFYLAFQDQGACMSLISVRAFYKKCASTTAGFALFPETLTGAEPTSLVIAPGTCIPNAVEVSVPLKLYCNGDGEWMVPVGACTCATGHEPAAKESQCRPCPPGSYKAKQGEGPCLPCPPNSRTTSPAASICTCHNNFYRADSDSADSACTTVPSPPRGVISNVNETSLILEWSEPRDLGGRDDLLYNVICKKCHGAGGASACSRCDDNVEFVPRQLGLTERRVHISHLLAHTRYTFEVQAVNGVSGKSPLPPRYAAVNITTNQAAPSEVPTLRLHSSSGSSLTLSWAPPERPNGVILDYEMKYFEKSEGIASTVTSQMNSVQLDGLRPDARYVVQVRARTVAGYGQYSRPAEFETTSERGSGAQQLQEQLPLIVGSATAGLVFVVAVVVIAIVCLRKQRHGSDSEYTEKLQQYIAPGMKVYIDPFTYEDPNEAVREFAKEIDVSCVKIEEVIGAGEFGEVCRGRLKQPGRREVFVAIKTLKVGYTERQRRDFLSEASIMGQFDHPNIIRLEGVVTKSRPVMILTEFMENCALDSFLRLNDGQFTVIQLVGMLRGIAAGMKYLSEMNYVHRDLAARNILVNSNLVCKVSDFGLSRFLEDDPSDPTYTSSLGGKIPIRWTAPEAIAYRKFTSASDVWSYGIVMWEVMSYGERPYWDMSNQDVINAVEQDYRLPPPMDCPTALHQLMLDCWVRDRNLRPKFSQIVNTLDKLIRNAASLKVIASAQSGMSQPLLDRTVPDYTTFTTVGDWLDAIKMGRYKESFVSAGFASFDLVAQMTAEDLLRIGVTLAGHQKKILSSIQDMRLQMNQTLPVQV

PLK1 (human) = PLK1 (human) (UniProt P53350)
PAK2 (human) = PAK2 (human) (UniProt Q13177)
BLK (human) = BLK (human) (UniProt P51451)
MAPK14 (human) = MAPK14 (human) (UniProt Q16539)
MAPK14 (human), sequence (Q16539 whole entry, looked up): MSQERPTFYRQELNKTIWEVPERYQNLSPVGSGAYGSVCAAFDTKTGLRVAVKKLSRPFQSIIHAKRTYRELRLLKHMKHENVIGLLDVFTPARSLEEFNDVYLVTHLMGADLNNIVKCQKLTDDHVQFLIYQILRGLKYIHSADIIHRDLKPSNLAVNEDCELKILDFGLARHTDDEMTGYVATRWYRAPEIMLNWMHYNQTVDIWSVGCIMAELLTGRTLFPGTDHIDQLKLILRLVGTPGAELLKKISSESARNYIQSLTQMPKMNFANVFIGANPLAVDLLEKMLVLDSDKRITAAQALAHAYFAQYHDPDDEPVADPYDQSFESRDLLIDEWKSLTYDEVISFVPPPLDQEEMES

PRKACB (human) = PRKACB (human) (UniProt P22694)
PIK3C2B (human) = PIK3C2B (human) (UniProt O00750)
PKN1 (human) = PKN1 (human) (UniProt Q16512)
PAK3 (human) = PAK3 (human) (UniProt O75914)
STK16 (human) = STK16 (human) (UniProt O75716)
MUSK (human) = MUSK (human) (UniProt O15146)
SIK1 (human) = SIK1 (human) (UniProt P57059)
CDK18 (human) = CDK18 (human) (UniProt Q07002)
FRK (human) = FRK (human) (UniProt P42685)
FRK (human), sequence (P42685 whole entry, looked up): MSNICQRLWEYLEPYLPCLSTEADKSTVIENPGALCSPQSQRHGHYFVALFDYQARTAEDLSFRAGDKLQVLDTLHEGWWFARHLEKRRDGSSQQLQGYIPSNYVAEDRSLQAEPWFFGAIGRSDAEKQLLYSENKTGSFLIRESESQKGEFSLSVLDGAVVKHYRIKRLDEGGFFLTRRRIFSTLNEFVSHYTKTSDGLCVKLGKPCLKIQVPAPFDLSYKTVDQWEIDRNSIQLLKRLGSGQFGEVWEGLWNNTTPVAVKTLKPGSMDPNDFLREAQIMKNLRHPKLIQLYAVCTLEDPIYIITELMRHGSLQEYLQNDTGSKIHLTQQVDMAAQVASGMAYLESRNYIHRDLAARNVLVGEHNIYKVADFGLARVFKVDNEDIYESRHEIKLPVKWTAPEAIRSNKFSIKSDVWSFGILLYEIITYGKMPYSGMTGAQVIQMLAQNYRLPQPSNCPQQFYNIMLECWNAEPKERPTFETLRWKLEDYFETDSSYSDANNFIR

MLTK (human) = MLTK (human) (UniProt Q9NYL2)

ROCK1 (human), sequence (Q13464 whole entry, looked up): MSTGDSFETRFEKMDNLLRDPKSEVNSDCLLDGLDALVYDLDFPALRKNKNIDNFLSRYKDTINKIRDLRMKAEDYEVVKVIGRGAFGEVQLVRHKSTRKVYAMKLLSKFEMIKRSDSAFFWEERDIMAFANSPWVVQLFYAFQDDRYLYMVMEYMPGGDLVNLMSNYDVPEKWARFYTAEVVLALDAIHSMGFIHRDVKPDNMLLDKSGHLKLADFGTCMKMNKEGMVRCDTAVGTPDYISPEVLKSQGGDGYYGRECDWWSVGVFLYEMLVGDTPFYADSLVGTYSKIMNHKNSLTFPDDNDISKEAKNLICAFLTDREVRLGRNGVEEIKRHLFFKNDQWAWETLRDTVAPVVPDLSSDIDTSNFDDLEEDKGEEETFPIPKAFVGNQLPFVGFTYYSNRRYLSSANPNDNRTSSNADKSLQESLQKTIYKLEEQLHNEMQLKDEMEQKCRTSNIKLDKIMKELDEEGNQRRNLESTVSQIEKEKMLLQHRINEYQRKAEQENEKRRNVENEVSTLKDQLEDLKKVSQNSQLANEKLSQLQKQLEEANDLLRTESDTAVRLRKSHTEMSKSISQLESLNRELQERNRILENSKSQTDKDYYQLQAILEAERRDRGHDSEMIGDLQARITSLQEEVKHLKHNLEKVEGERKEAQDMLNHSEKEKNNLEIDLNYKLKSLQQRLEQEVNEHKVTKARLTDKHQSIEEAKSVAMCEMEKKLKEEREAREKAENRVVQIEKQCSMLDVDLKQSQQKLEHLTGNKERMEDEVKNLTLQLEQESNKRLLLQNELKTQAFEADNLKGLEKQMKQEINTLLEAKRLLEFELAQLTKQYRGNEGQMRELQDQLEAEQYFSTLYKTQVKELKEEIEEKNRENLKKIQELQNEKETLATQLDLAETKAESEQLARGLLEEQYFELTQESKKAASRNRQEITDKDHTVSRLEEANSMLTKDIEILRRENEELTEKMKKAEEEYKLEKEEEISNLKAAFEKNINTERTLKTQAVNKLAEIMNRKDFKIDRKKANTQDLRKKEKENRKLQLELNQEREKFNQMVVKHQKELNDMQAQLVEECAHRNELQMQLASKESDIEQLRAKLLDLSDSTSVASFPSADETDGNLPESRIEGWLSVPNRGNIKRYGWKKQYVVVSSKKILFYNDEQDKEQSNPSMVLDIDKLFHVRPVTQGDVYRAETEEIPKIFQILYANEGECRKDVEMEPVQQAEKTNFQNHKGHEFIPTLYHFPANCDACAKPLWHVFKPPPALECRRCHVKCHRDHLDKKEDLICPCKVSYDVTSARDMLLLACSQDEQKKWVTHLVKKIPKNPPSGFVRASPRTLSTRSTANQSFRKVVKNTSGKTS

**Q.** `Cc1cc([C@@H](C)Nc2ccccc2C(=O)O)c2nc(N3CCOCC3)cc(=O)n2c1` was tested. Which kinase still bound, per cent of control (ROCK1 (human)) did it give?
**A.** 90%

**Q.** And the kinase still bound, per cent of control (TRPM6 (human))?
**A.** 64%

**Q.** What about the kinase still bound, per cent of control (MAPKAPK5 (human)) of the same compound?
**A.** 90%

**Q.** And the kinase still bound, per cent of control [1]?
**A.** 40%

**Q.** And the kinase still bound, per cent of control (MAST1 (human))?
**A.** 54%

**Q.** And the kinase still bound, per cent of control (EPHB1 (human))?
**A.** 99%

**Q.** What about the kinase still bound, per cent of control (DDR2 (human)) of the same compound?
**A.** 100%

**Q.** And the kinase still bound, per cent of control [2]?
**A.** 100%

**Q.** What about the kinase still bound, per cent of control (CDKL5 (human)) of the same compound?
**A.** 82%

**Q.** What about the kinase still bound, per cent of control (HIPK2 (human)) of the same compound?
**A.** 77%

**Q.** What about the kinase still bound, per cent of control (PRPF4B (human)) of the same compound?
**A.** 100%

**Q.** What about the kinase still bound, per cent of control (CDK4 CCND1 (human)) of the same compound?
**A.** 38%

**Q.** And the kinase still bound, per cent of control (MAP2K6 (human))?
**A.** 91%

**Q.** And the kinase still bound, per cent of control (CSNK2A1 (human))?
**A.** 66%

**Q.** What about the kinase still bound, per cent of control (INSRR (human)) of the same compound?
**A.** 100%

**Q.** And the kinase still bound, per cent of control (PLK2 (human))?
**A.** 100%

**Q.** What about the kinase still bound, per cent of control (SRPK3 (human)) of the same compound?
**A.** 83%

**Q.** And the kinase still bound, per cent of control (ITK (human))?
**A.** 100%

**Q.** What about the kinase still bound, per cent of control (PRKAA1 (human)) of the same compound?
**A.** 62%

**Q.** What about the kinase still bound, per cent of control (AAK1 (human)) of the same compound?
**A.** 91%

**Q.** What about the kinase still bound, per cent of control (SIK3 (human)) of the same compound?
**A.** 87%

**Q.** And the kinase still bound, per cent of control (TNNI3K (human))?
**A.** 15%

**Q.** And the kinase still bound, per cent of control (LIMK1 (human))?
**A.** 100%

**Q.** What about the kinase still bound, per cent of control (MAPK7 (human)) of the same compound?
**A.** 100%

**Q.** And the kinase still bound, per cent of control (CSNK1G1 (human))?
**A.** 77%

**Q.** What about the kinase still bound, per cent of control (MAP4K4 (human)) of the same compound?
**A.** 98%

**Q.** And the kinase still bound, per cent of control (EPHA2 (human))?
**A.** 99%

**Q.** And the kinase still bound, per cent of control (EPHB3 (human))?
**A.** 100%

**Q.** What about the kinase still bound, per cent of control (PLK1 (human)) of the same compound?
**A.** 55%

**Q.** And the kinase still bound, per cent of control (PAK2 (human))?
**A.** 100%

**Q.** What about the kinase still bound, per cent of control (BLK (human)) of the same compound?
**A.** 100%

**Q.** What about the kinase still bound, per cent of control (MAPK14 (human)) of the same compound?
**A.** 100%

**Q.** What about the kinase still bound, per cent of control (PRKACB (human)) of the same compound?
**A.** 62%

**Q.** What about the kinase still bound, per cent of control (PIK3C2B (human)) of the same compound?
**A.** 1%

**Q.** And the kinase still bound, per cent of control (PKN1 (human))?
**A.** 100%

**Q.** And the kinase still bound, per cent of control (PAK3 (human))?
**A.** 12%

**Q.** What about the kinase still bound, per cent of control (STK16 (human)) of the same compound?
**A.** 99%

**Q.** And the kinase still bound, per cent of control (MUSK (human))?
**A.** 100%

**Q.** And the kinase still bound, per cent of control (SIK1 (human))?
**A.** 100%

**Q.** What about the kinase still bound, per cent of control (CDK18 (human)) of the same compound?
**A.** 83%

**Q.** What about the kinase still bound, per cent of control (FRK (human)) of the same compound?
**A.** 47%

**Q.** And the kinase still bound, per cent of control (MLTK (human))?
**A.** 100%
